The source of these data is patent US10919858B2, “Thioacetate compounds, compositions and methods of use” (ARDEA BIOSCIENCES, INC., priority 2010, dated 2021).

The target of the experiment is URAT1 (Homo sapiens (Human), UniProt Q96S37). Kind of experiment: URAT1-model assay, 14C-uric acid transport in HEK293/URAT1-model cells. The experiment is classed as cell-based. Conditions: 14C-uric acid 125 μM, 10 minutes at room temperature, read-out: URAT1 EC50 Activity Ranking. How it is done: HEK293 human embryonic kidney cells (ATCC #CRL-1573) were propagated in EMEM tissue culture medium as described by ATCC in an atmosphere of 5% C02 and 95% air. Transfections of HEK293 cells with a model URAT1 construct was performed using L2000 transfection reagent (Invitrogen) as described by the manufacturer. After 24 h the transfected cells were split into 10 cm tissue culture plates and grown for 1 day after which the medium was replaced with fresh growth medium containing G418 (Gibco) at 0.5 mg/ml final concentration. Drug-resistant colonies were selected after approximately 8 days and then tested for ^14C-uric acid transport activity. The HEK293/URAT1-model cells are plated on Poly-D-Lysine Coated 96-well Plates at a density of 125,000 cells per well.
URAT1, sequence (Q96S37 whole entry, species assumed): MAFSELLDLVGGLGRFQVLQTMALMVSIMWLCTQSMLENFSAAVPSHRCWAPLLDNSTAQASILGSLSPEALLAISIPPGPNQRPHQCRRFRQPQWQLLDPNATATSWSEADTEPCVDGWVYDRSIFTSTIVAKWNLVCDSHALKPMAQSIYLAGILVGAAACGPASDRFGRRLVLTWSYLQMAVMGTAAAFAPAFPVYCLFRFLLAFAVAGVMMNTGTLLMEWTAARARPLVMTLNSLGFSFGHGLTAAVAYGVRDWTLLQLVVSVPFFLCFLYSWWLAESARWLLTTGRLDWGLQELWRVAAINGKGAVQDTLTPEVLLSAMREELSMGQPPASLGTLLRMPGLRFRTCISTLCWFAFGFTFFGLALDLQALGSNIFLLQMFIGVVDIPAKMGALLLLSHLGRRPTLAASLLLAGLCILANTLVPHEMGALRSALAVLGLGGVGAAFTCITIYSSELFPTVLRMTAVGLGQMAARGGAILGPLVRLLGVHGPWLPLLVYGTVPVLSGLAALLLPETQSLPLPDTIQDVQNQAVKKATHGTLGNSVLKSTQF
Cells were grown overnight (20-26 hours) at 37° C. in an incubator. Plates were allowed to come to room temperature and media was washed out with one wash of 250 μl of Wash Buffer (125 mM Na Gluconate, 10 mM Hepes ph 7.3). Compound or vehicle is added in assay buffer with ^14C-uric acid for a final concentration of 125 μM Uric Acid with a specific activity of 54 mCi/mmol. Assay Buffer is 125 mM Sodium Gluconate, 4.8 mM Potassium Gluconate, 1.2 mM Potassium phosphate, monobasic, 1.2 mM magnesium sulfate, 1.3 mM Ca Gluconate, 5.6 mM Glucose, 25 mM HEPES, pH 7.3. Plates were incubated at room temperature for 10 minutes then washed 3 times with 50 μl Wash Buffer and 3 times with 250 μl Wash Buffer. Microscint 20 Scintillation Fluid was added and plates were incubated overnight at room temperature to equilibrate. Plates are then read on the TopCount Plate Reader and an EC50 value generated. (See Enomoto et al, Nature, 2002, 417, 447-451 and Anzai et al, J. Biol. Chem., 2004, 279, 45942-45950.)
Take `CC(C)(Sc1cccnc1-c1ccc(C#N)cc1)C(=O)O` [Example 1A, 2-(2-(4-Cyanophenyl)pyridin-3-ylthio)-2-methylpropanoic acid]: the EC50 (usually the concentration needed to bring the measured effect to its halfway point) is 50 to 500 nM. For the compound `CC(C)(Sc1ccncc1-c1ccc(C#N)cc1)C(=O)O` [Example 2A, 2-(3-(4-Cyanophenyl)pyridin-4-ylthio)-2-methylpropanoic acid], the EC50 was in the range of 1 to 50 nM. In the case of `CC(C)(Sc1ccncc1-c1ccc(O)cc1)C(=O)O` [Example 2AAA], the EC50 lay within 1 to 50 nM. Take `CC(C)(Sc1ccncc1-c1ccc(Br)c2ccccc12)C(=O)O` [Example 2AA]: the EC50 lay within 50 to 500 nM.

For the compound `CC(C)(Sc1ccncc1-c1ccc(C#N)c(F)c1)C(=O)O` [Example 2BBB], the EC50 lay in the range of 50 to 500 nM.

For the compound `Cc1ccc(-c2cnccc2SC(C)(C)C(=O)O)c2ccccc12` [Example 2BB], the EC50 was in the range of 50 to 500 nM. In the case of `Cc1ccc(-c2cnccc2SC(C)(C)C(=O)O)cc1` [Example 2CCC] it was 50 to 500 nM; in that of `CC(C)(Sc1ccncc1-c1ccc(S(N)(=O)=O)cc1)C(=O)O` [Example 2CC], 50 to 500 nM; in that of `CC(C)(Sc1ccncc1-c1ccc(C#N)c2ccccc12)C(=O)O` [Example 2C], 1 to 50 nM. In the case of `CC(=O)Nc1ccc(-c2cnccc2SC(C)(C)C(=O)O)cc1` [Example 2DDD] it was 50 to 500 nM; in that of `CC(C)(Sc1ccncc1-c1cccc2ccccc12)C(=O)O` [Example 2DD], 50 to 500 nM; in that of `CC(C)(Sc1ccncc1-c1ccc(S(=O)(=O)NC2CC2)cc1)C(=O)O` [Example 2D], 50 to 500 nM. For the compound `CC(C)(Sc1ccncc1-c1ccc(S(C)(=O)=O)cc1)C(=O)O` [Example 2EEE], the EC50 was in the range of 50 to 500 nM. In the case of `CC(C)(Sc1ccncc1-c1ccc(Cl)c(C(F)(F)F)c1)C(=O)O` [Example 2EE], the EC50 fell in the range of 50 to 500 nM. For the compound `CC(C)(Sc1ccncc1-c1ccc(C#N)c(Cl)c1)C(=O)O` [Example 2FFF], the EC50 was 1 to 50 nM. In the case of `CC(C)(Sc1ccncc1-c1cnc2ccccc2c1)C(=O)O` [Example 2F], the concentration for a half-maximal effect (EC50) was 50 to 500 nM. As for `CC(C)(Sc1ccncc1-c1ccc(S)cc1)C(=O)O` [Example 2GGG], the EC50 is 50 to 500 nM. For `CC(C)(Sc1ccncc1-c1ccc(F)cc1)C(=O)O` [Example 2GG], the EC50 was in the range of 50 to 500 nM. Then `CC(C)(Sc1ccncc1-c1cccc2ncccc12)C(=O)O` [Example 2H], with 50 to 500 nM; and `CC(C)(Sc1ccncc1-c1ccc(C#N)cc1F)C(=O)O` [Example 2III], with 1 to 50 nM.

Consider `CC(C)(Sc1ccncc1-c1ccnc2ccccc12)C(=O)O` [Example 2II], for which the EC50 lay within 50 to 500 nM. Take `CC(C)(Sc1ccncc1-c1ccc(C(N)=O)cc1F)C(=O)O` [Example 2JJJ]: the EC50 is 50 to 500 nM. Take `CC(C)(Sc1ccncc1-c1ccc(CO)cc1)C(=O)O` [Example 2JJ]: the EC50 was in the range of 1 to 50 nM. For the compound `N#Cc1ccc(-c2cnccc2SC2(C(=O)O)CCC2)c2ccccc12` [Example 2J], the EC50 fell in the range of 1 to 50 nM. Then `CC(C)(Sc1ccncc1-c1ccc(C(N)=O)cc1)C(=O)O` [Example 2KK], with 50 to 500 nM; and `CCc1ccc(-c2cnccc2SC(C)(C)C(=O)O)cc1` [Example 2K], with 50 to 500 nM; and `COc1cncc(-c2cnccc2SC(C)(C)C(=O)O)c1` [Example 2MM], with 50 to 500 nM.

Turning to `Cc1cc(C#N)ccc1-c1cnccc1SC(C)(C)C(=O)O` [Example 2NN], the 50% effective concentration (EC50) fell in the range of 1 to 50 nM. Take `CC(C)(Sc1ccncc1-c1ccc(C(F)(F)F)cc1)C(=O)O` [Example 2N]: the concentration giving a half-maximal response (EC50) is 50 to 500 nM. Consider `CC(C)(Sc1ccncc1-c1ccc(Cl)cc1)C(=O)O` [Example 2O], for which the EC50 was in the range of 1 to 50 nM. Take `CC(C)(Sc1ccncc1-c1ccncc1)C(=O)O` [Example 2PP]: the EC50 fell in the range of 1 to 50 nM. Then `CC(C)(Sc1ccncc1-c1ccc(Cl)cc1)C(=O)O` [Example 2P], with 1 to 50 nM; and `CSc1ccc(-c2cnccc2SC(C)(C)C(=O)O)cc1` [Example 2Q], with 50 to 500 nM; and `CC(C)(Sc1ccncc1-c1ccc(Cl)c(Cl)c1)C(=O)O` [Example 2S], with 50 to 500 nM. On to `CC(C)(Sc1ccncc1-c1cccc(C#N)c1)C(=O)O` [Example 2TT], for which the EC50 was 50 to 500 nM.

Regarding `COc1ccc(-c2cnccc2SC(C)(C)C(=O)O)cn1` [Example 2T], the EC50 was in the range of 50 to 500 nM.

Take `CC(C)(Sc1ccncc1-c1ccc(Br)cc1)C(=O)O` [Example 2UU]: the EC50 is 1 to 50 nM. Then `CC(C)(Sc1ccncc1-c1cncc2ccccc12)C(=O)O` [Example 2U], with 50 to 500 nM; and `Cc1cc(C(N)=O)ccc1-c1cnccc1SC(C)(C)C(=O)O` [Example 2WW], with 50 to 500 nM.

Take `CC(C)(Sc1ccncc1-c1ccc(F)c(F)c1)C(=O)O` [Example 2W]: the EC50 was in the range of 50 to 500 nM. In the case of `COc1ccc(-c2cnccc2SC(C)(C)C(=O)O)cc1` [Example 2XX], the EC50 lay in the range of 50 to 500 nM.

On to `CC(C)(Sc1ccncc1-c1ccc(F)c2ccccc12)C(=O)O` [Example 2X], for which the EC50 was in the range of 1 to 50 nM. As to `COc1cc(-c2cnccc2SC(C)(C)C(=O)O)ccc1C#N` [Example 2ZZ], the EC50 fell in the range of 50 to 500 nM. Consider `CC(C)(Sc1cnccc1-c1ccc(C#N)cc1)C(=O)O` [Example 3A, 2-(4-(4-Cyanophenyl)pyridin-3-ylthio)-2-methylpropanoic acid], for which the EC50 was in the range of 500 to 10000 nM. On to `N#Cc1ccc(-c2cccnc2SC2(C(=O)O)CCC2)c2ccccc12` [Example 4C], for which the EC50 fell in the range of 50 to 500 nM. Then `N#Cc1ccc(-c2nccnc2SCC(=O)O)c2ccccc12` [Example 5A, 2-(3-(4-Cyanonaphthalen-1-yl)pyrazin-2-ylthio)acetic acid], with 500 to 10000 nM. Regarding `N#Cc1ccc(-c2cncnc2SCC(=O)O)c2ccccc12` [Example 6A, 2-(5-(4-Cyanonaphthalen-1-yl)pyrimidin-4-ylthio)acetic acid], the EC50 fell in the range of 500 to 10000 nM. In the case of `N#Cc1ccc(-c2ncncc2SCC(=O)O)c2ccccc12` [Example 7A, 2-(4-(4-Cyanonaphthalen-1-yl)pyrimidin-5-ylthio)acetic acid], the EC50 was 500 to 10000 nM.
